Like-named read-outs stand apart in the source and are kept apart here.

Holding throughout (assay type): cell-based
Assay [1] has as its target T1, human TAAR1 receptors (Homo sapiens, UniProt Q96RJ0).
T1 construct: host or cells: CHO-K1
T1 sequence (Q96RJ0 1-339): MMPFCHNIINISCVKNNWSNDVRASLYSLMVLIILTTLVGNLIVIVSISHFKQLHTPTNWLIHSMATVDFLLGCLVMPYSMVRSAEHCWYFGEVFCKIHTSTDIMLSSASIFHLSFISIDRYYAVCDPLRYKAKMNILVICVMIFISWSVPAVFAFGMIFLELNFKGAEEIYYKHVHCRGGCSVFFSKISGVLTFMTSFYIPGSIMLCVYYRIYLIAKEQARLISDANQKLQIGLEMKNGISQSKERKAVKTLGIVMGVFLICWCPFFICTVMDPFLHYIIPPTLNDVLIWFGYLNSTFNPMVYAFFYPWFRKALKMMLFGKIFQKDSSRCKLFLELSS
Briefly: TAAR1 Agonism Assay: cAMP HTRF assay for Gs coupled receptor TAAR1 (Euroscreen FAST-0987C). Particulars: CHO-K1 cells expressing human TAAR1, cAMP HTRF. In outline:
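cAMP accumulation detected by HTRF fluorescence ratio, reagents added in lysis buffer and incubated 1 h at about room temperature. Beforehand, cells (about 3,000 per well) sat with test compound at ten concentrations from 0.3 to 10,000 nM in duplicate for roughly 30 min at about room temperature; tyramine dose-response run alongside.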
On the technique in general: In TR-FRET formats the signal depends on donor and acceptor labels being close together.

Assay [2] has as its target T2, human 5-HT2A receptor (Homo sapiens, UniProt P28223).
T2 construct: host or cells: CHO-K1
Kind of assay: 5HT2A Antagonism Assay (Euroscreen FAST-05051), IP-One HTRF. In outline: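 CHO-K1 cells expressing receptor, 20,000/well, co-incubated with test compound and reference agonist at its EC80 for 60 min at 37 °C. IP1 accumulation read by HTRF after ~1 h detection at room temperature. Compounds tested in duplicate at 0.3–10,000 nM.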

The target of assay [3] is T3, human 5-HT7 receptor (Homo sapiens, UniProt P34969).
T3 construct: host or cells: CHO-K1
Briefly: 5HT7 Antagonism Assay (Euroscreen FAST-0499C), cAMP HTRF. The note with it: CHO-K1 cells expressing human 5-HT7, reference agonist at EC80, cAMP HTRF. The procedure, abridged:
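CHO-K1 cells expressing human 5-HT7, 3000 per well in Krebs-Ringer HEPES with 1 mM IBMX, were exposed for 30 minutes at room temperature to compound plus reference agonist at its EC80. cAMP was read by HTRF after 1 hour; compounds were tested in duplicate from 0.3 to 10,000 nM.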

The mark [4] stands for this setting: CHO-K1 cells expressing human 5-HT2A, reference agonist at EC80, IP-One, read-out: 5-HT2A (IC50).
Where [5] appears, read: 5-HT2A (IC50), CHO-K1 cells expressing human 5-HT2A, reference agonist at EC80, IP-One.
Where [6] appears, read: read-out: 5-HT2A (IC50), CHO-K1 cells expressing human 5-HT2A, reference agonist at EC80, IP-One.

T2 sequence (P28223 whole entry): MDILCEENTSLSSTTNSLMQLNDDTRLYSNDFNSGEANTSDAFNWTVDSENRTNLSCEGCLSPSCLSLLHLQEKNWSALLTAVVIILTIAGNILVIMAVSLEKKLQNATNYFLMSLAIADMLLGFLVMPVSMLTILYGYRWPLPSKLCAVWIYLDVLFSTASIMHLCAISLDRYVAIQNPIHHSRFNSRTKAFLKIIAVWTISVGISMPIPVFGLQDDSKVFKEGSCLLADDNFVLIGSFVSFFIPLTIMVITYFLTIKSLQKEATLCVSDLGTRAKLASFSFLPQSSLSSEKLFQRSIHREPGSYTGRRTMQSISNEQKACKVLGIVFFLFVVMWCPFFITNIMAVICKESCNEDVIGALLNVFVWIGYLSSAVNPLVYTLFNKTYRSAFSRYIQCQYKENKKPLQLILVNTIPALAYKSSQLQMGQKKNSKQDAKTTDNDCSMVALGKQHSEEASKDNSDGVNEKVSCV
T3 sequence (P34969 whole entry): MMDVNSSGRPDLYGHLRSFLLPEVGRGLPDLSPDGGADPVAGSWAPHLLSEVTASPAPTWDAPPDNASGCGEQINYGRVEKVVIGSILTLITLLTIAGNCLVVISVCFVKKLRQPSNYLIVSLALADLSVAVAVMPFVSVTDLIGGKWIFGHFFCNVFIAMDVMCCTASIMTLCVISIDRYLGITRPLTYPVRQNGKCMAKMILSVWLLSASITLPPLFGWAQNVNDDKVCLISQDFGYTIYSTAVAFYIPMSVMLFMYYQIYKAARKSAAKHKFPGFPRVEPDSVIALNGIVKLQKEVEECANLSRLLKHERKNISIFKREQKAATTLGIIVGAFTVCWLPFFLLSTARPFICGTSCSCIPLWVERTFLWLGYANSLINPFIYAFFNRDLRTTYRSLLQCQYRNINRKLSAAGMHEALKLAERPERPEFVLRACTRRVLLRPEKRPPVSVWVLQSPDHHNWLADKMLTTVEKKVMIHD

One may read the EC50 as the concentration giving half of the maximal effect. A lower EC50 goes with higher potency in that assay. In general, IC50 refers to the point on the concentration scale where inhibition reaches its midpoint. Compound `CNCC1Cc2ncccc2Oc2cccc(F)c21` (single isomer, unassigned) [Compound 158, (S*)-(9-fluoro-10,11-dihydrobenzo[6,7]oxepino[3,2-b]pyridin-10-yl)-N-methylmethanamine] came in with a 50% effective concentration (EC50) in assay [1] of 1000 to 10000 nM. Also, the IC50 in assay [2] (setting [4]) is greater than 10000 nM; in assay [3] it was no less than 10 µM.

The compound `NCC1Cc2ncccc2Oc2cc(Cl)ccc21` (single isomer, unassigned) [Compound 171, (R*)-(7-chloro-10,11-dihydrobenzo[6,7]oxepino[3,2-b]pyridin-10-yl)methanamine] came in with an EC50 in assay [1] of 1000 to 10000 nM. The IC50 in assay [2] (setting [5]) was less than 1000 nM; in assay [3] it was no less than 10 µM.

For `CNCC1Cc2ccccc2Oc2ccc(C)nc21` (single isomer, unassigned) [Compound 150, (R*)-(2-methyl-10,11-dihydrobenzo[6,7]oxepino[3,2-b]pyridin-11-yl)-N-methylmethanamine], the EC50 in assay [1] was less than 1000 nM. Moreover, the IC50 in assay [2] (setting [5]) is less than 1000 nM; in assay [3] it was 1 to 10 µM.

In assay [1], `NCC1Cc2cccnc2Oc2ccccc21` (single isomer, unassigned) [Compound 18, (S*)-(5,6-dihydrobenzo[6,7]oxepino[2,3-b]pyridin-6-yl)methanamine] had a half-maximal effective concentration (EC50) greater than 10000 nM. Moreover, the half-maximal inhibitory concentration (IC50) is greater than 10000 nM in assay [2] (setting [5]) and no less than 10 µM in assay [3].

The compound `NCC1Cc2ccc(Cl)cc2Oc2cccnc21` (single isomer, unassigned) [Compound 125, (R*)-(7-chloro-10,11-dihydrobenzo[6,7]oxepino[3,2-b]pyridin-11-yl)methanamine] gave a concentration for a half-maximal effect (EC50) in assay [1] of less than 1000 nM. In addition, the IC50 in assay [2] (setting [5]) is greater than 10000 nM; in assay [3], no less than 10 µM.

In turn, `CNCC1Oc2ccc(F)cc2Oc2ccccc21` (single isomer, unassigned) [Compound 43, (R*)-1-(7-fluoro-11H-dibenzo[b,e][1,4]dioxepin-11-yl)-N-methylmethanamine] gave an EC50 in assay [1] of less than 1000 nM. In addition, the IC50 in assay [2] (setting [5]) was less than 1000 nM; in assay [3] it was less than 1 µM.

`NCC1Cc2cccnc2Oc2ccccc21` (single isomer, unassigned) [Compound 17, (R*)-(5,6-dihydrobenzo[6,7]oxepino[2,3-b]pyridin-6-yl)methanamine] showed an EC50 in assay [1] of less than 1000 nM. Also, the results for the IC50 in assay [2] (setting [5]) and in assay [3] were less than 1000 nM and no less than 10 µM, respectively.

In assay [1], `Cc1ccc2c(c1)CC(CN)c1ncccc1O2` (single isomer, unassigned) [Compound 128, (S*)-(8-methyl-10,11-dihydrobenzo[6,7]oxepino[3,2-b]pyridin-11-yl)methanamine] registered an EC50 of less than 1000 nM. Further, the half-maximal inhibitory concentration (IC50) is 1000 to 10000 nM in assay [2] (setting [5]) and 1 to 10 µM in assay [3].

Regarding `NCC1Oc2ccccc2Oc2cccnc21` (single isomer, unassigned) [Compound 59, (S*)-(11H-benzo[2,3][1,4]dioxepino[6,5-b]pyridin-11-yl)methanamine], the EC50 in assay [1] is less than 1000 nM. For the same compound, the results for the half-inhibitory concentration (IC50) in assay [2] (setting [5]) and in assay [3] were greater than 10000 nM and no less than 10 µM, respectively.

On to `NCC1Oc2ccccc2Oc2cccnc21` (single isomer, unassigned) [Compound 60, (R*)-(11H-benzo[2,3][1,4]dioxepino[6,5-b]pyridin-11-yl)methanamine], for which, in assay [1], the EC50 is less than 1000 nM. In addition, the results for the 50% inhibitory concentration (IC50) in assay [2] (setting [6]) and in assay [3] were greater than 10000 nM and no less than 10 µM, respectively.

For `CNCC1Cc2c(F)cccc2Oc2cccnc21` (single isomer, unassigned) [Compound 138, (S*)-1-(9-fluoro-10,11-dihydrobenzo[6,7]oxepino[3,2-b]pyridin-11-yl)-N-methylmethanamine], the EC50 in assay [1] was less than 1000 nM. In addition, the IC50 in assay [2] (setting [5]) was less than 1000 nM; in assay [3] it was no less than 10 µM.

For `N#Cc1ccc2c(c1)C(CN)Cc1ncccc1O2` (single isomer, unassigned) [Compound 159, (R*)-10-(aminomethyl)-10,11-dihydrobenzo[6,7]-oxepino[3,2-b]pyridine-8-carbonitrile], the concentration giving a half-maximal response (EC50) in assay [1] is 1000 to 10000 nM. Besides, the half-inhibitory concentration (IC50) in assay [2] (setting [5]) was greater than 10000 nM; in assay [3], no less than 10 µM.

In assay [1], `NCC1Cc2ccncc2Oc2ccccc21` (single isomer, unassigned) [Compound 22, (S*)-(5,6-dihydrobenzo[6,7]oxepino[2,3-c]pyridin-6-yl)methanamine] had an EC50 of 1000 to 10000 nM. Further, the IC50 in assay [2] (setting [6]) is 1000 to 10000 nM; in assay [3], no less than 10 µM.

For `CNCC1Cc2ncccc2Oc2ccc(C#N)cc21` (single isomer, unassigned) [Compound 161, (R*)-10-((methylamino)methyl)-10,11-dihydrobenzo[6,7]oxepino[3,2-b]pyridine-8-carbonitrile], in assay [1], the concentration for a half-maximal effect (EC50) is greater than 10000 nM. The half-inhibitory concentration (IC50) is 1000 to 10000 nM in assay [2] (setting [4]) and no less than 10 µM in assay [3].

In turn, `NCC1Oc2ccccc2Oc2ccncc21` (single isomer, unassigned) [Compound 53, (R*)-(11H-benzo[2,3][1,4]dioxepino[6,5-c]pyridin-11-yl)methanamine] yielded an EC50 in assay [1] of 1000 to 10000 nM. In addition, the 50% inhibitory concentration (IC50) is greater than 10000 nM in assay [2] (setting [4]) and no less than 10 µM in assay [3].

`NCC1Oc2ccc(F)cc2Oc2ccccc21` (single isomer, unassigned) [Compound 42, (S*)-(7-fluoro-11H-dibenzo[b,e][1,4]dioxepin-11-yl)methanamine] had a concentration for a half-maximal effect (EC50) in assay [1] of less than 1000 nM. The IC50 was less than 1000 nM in assay [2] (setting [6]) and no less than 10 µM in assay [3].

As to `CNCC1Cc2cc(C)ccc2Oc2cccnc21` (single isomer, unassigned) [Compound 130, (S*)—N-methyl-1-(8-methyl-10,11-dihydrobenzo[6,7]oxepino[3,2-b]pyridin-11-yl)methanamine], the EC50 in assay [1] is less than 1000 nM. Besides, the results for the IC50 in assay [2] (setting [5]) and in assay [3] were less than 1000 nM and 1 to 10 µM, respectively.

Take `CNC[C@@H]1c2ncccc2Oc2ccccc2[C@H]1C` (stereo in doubt) [Compound 118, ((10S*,11R*)-10-methyl-10,11-dihydrobenzo[6,7]oxepino[3,2-b]pyridin-11-yl)-N-methylmethanamine]: the half-maximal effective concentration (EC50) in assay [1] was less than 1000 nM. The 50% inhibitory concentration (IC50) in assay [2] (setting [5]) is 1000 to 10000 nM; in assay [3] it was no less than 10 µM.

`NCC1Cc2ncc(Cl)cc2Oc2ccccc21` (single isomer, unassigned) [Compound 179, (R*)-(3-chloro-10,11-dihydrobenzo[6,7]oxepino[3,2-b]pyridin-10-yl)methanamine] came in with a 50% effective concentration (EC50) in assay [1] of 1000 to 10000 nM. Besides, the IC50 was 1000 to 10000 nM in assay [2] (setting [5]) and no less than 10 µM in assay [3].

Turning to `CNCC1Cc2ncccc2Oc2ccc(Cl)cc21` (single isomer, unassigned) [Compound 170, (S*)-1-(8-chloro-10,11-dihydrobenzo[6,7]oxepino[3,2-b]pyridin-10-yl)-N-methylmethanamine], in assay [1], the EC50 is less than 1000 nM. Also, the IC50 in assay [2] (setting [5]) is less than 1000 nM; in assay [3], less than 1 µM.

With `CNCC1Oc2ccccc2Oc2ncccc21` (single isomer, unassigned) [Compound 46, (S*)-1-(5H-benzo[2,3][1,4]dioxepino[5,6-b]pyridin-5-yl)-N-methylmethanamine], the EC50 in assay [1] lay in the range of 1000 to 10000 nM. Moreover, the figures for the IC50 in assay [2] (setting [4]) and in assay [3] were 1000 to 10000 nM and no less than 10 µM, respectively.

In turn, `CNCC1Oc2ccccc2Oc2cccnc21` (single isomer, unassigned) [Compound 57, (S*)-1-(11H-benzo[2,3][1,4]dioxepino[6,5-b]pyridin-11-yl)-N-methylmethanamine] showed a half-maximal effective concentration (EC50) in assay [1] of less than 1000 nM. Further, the half-maximal inhibitory concentration (IC50) in assay [2] (setting [5]) is 1000 to 10000 nM; in assay [3], no less than 10 µM.

Compound `N#Cc1ccc2c(c1)C(CN)Cc1ncccc1O2` (single isomer, unassigned) [Compound 160, (S*)-10-(aminomethyl)-10,11-dihydrobenzo[6,7]oxepino[3,2-b]pyridine-8-carbonitrile] displayed a concentration for a half-maximal effect (EC50) in assay [1] of less than 1000 nM. The results for the IC50 in assay [2] (setting [5]) and in assay [3] were less than 1000 nM and 1 to 10 µM, respectively.

In assay [1], `Cc1ccc2c(c1)Oc1cccnc1C(CN)C2` (single isomer, unassigned) [Compound 133, (R*)-(7-methyl-10,11-dihydrobenzo[6,7]oxepino[3,2-b]pyridin-11-yl)methanamine] registered a 50% effective concentration (EC50) of less than 1000 nM. Further, the IC50 in assay [2] (setting [5]) was 1000 to 10000 nM; in assay [3], no less than 10 µM.

Compound `CNC[C@H]1Cc2ncc(F)cc2Oc2ccccc21` (single isomer, unassigned) [Compound 38, (S*)-1-(3-fluoro-10,11-dihydrobenzo[6,7]oxepino[3,2-b]pyridin-10-yl)-N-methylmethanamine] displayed an EC50 in assay [1] of 1000 to 10000 nM. The IC50 is less than 1000 nM in assay [2] (setting [4]) and 1 to 10 µM in assay [3].

These data come from patent US20240245658A1, “TAAR1 AND SEROTONIN MODULATORS, AND PHARMACEUTICAL COMPOSITIONS, AND METHODS OF USE THEREOF” (Sunovion Pharmaceuticals Inc., priority 2021, published 2024).
